According to patent US8158389B2, “Products and methods for in vivo secretion of monatin” (priority 2005, dated 2012):

Key:
[1] = test system: E. coli MG1655 ΔAcrAB 6-16::aspCproAproNde; assay: AcrAB k.o. validation: growth (OD 600 nm) with novobiocin / sodium decanoate, knockout strain; type: cell-based, Escherichia coli; conditions: sodium decanoate 2.5 mM; novobiocin 0 ppm
Procedure: Single chloramphenicol-resistant colonies were purified by restreaking on appropriate selective media and single colonies were tested by PCR as previously described for the BW25113 knockout strains, to verify the presence of the emrB and acrAB knockouts. The effects of the emrB and acrAB knockouts on the EmrAB and AcrAB transporter systems respectively were determined by assessing the phenotype of the transport mutants using appropriate antibiotics and comparison to wild type control microorganisms as shown in Table 3.1 and Table 3.2 below.

E. coli MG1655 = assay: Monatin excretion with 2.5 mM sodium decanoate, E. coli MG1655 strains with pUC19, robA or ramA (30, 48 h); type: cell-based, Escherichia coli
Description: The strains used for the experiment included E. coli MG1655 : : aspC/proA/pProNdeDel together with the robA gene from E. coli cloned into the pUC19 vector. The control strain was E. coli MG1655 : : aspC/proA/pProNde along with the pUC19 vector. The robA gene was amplified from E. coli W3110 using primers 5′[…]3′ (SEQ ID NO. 20) and 5′[…]3′ (SEQ ID NO. 21), which introduced SalI and BamHI sites at the end of the amplified fragment. The PCR fragment was cloned between the SalI and BamHI sites of the vector pUC19 (GenBank/EMBL accession number L09137). For inoculum, the E. coli strains were grown overnight at 37° C. and 250 rpm in Luria-Bertani (“LB”) medium with 100 μg/mL ampicillin and 50 μg/mL kanamycin.
For the experimental treatments, Trp-1+glucose medium, a minimal medium that has been used for increased production of tryptophan in E. coli cells (Zeman et al. Folia Microbiol. 35:200-204, (1990)), was prepared as follows. To 800 mL nanopure water the following reagents were added: 2 g (NH4)2SO4 and 13.6 g KH2PO4. The pH was adjusted to 7.0, the volume was increased to 948 mL, and the medium was autoclaved. Following sterilization, 0.2 g MgSO4.7H2O, 0.01 g CaCl2.2H2O, and 0.5 mg FeSO4.7H2O were ad to the medium in a 1.8 mL volume followed by addition of 0.2 mL of Neidhardt's micronutrient solution. Neidhardt F. C., et al., “Culture medium for Enterobacteria,” J. Bacteriol. 119:736-746, (1974). Neidhardt's medium includes (per liter): 0.18 g (NH4)6(MO7)24-4H2O, 1.24 g H3BO3, 0.36 g CoCl2.6H2O, 0.12 g CuSO4 (anhydrous), 0.8 g MnCl2.4H2O, and 0.14 g ZnSO4.7H2O. A 50% glucose solution was prepared separately and sterile-filtered. Forty mL of glucose solution and 10 mL of 1 M 3-Morpholinopropanesulfonic acid (“MOPS”) buffer were added to the base medium (950 mL) for a 1 L final volume.
Conditions for the treatments included 250 rpm agitation throughout and 37° C. up to induction, then, 30° C. following induction. At 0.30-0.50 OD600 nm, induction of the plasmid genes was initiated. At induction, 1.0 mM IPTG, 0.5% L-arabinose, 0.5 mM pyridoxine hydrochloride, and 0.2 mLs of Balch's vitamins were added. Additions of 10 g/L L-tryptophan, 10 g/L sodium pyruvate, 0.04 mM pyridoxal-5′-phosphate (“PLP”) and 0.2% Tween® 20 (polyoxyethylene 20-sorbitan monolaurate) were made 3 hours following induction. Some treatments included 2.5 mM sodium decanoate addition at 3 hours following induction.
The strains used for the experiment included E. coli MG1655 : : aspC/proA/pProNdeDel together with the ramA gene from Enterobacter aerogenes cloned into the pUC19 vector (GenBank/EMBL accession number L09137). The control strain was E. coli MG1655 : : aspC/proA/pProNde along with the pUC19 vector. The ramA gene was amplified from E. aerogenes ATCC 13048 by using primers, 5′[…]3′ (SEQ ID NO. 22) and 5′[…]3′ (SEQ ID NO. 23), which introduced Sal I and BamH I sites at the end of the amplified fragment. The PCR fragment was cloned between the Sal I and BamH I sites of the vector pUC19 (GenBank/EMBL accession number L09137). For inoculum, the E. coli strains were grown overnight at 37° C. and 250 rpm in Luria-Bertani (“LB”) medium with 100 μg/mL ampicillin and 50 μg/mL kanamycin.
For the experimental treatments, Trp-1+glucose medium, a minimal medium that has been used for increased production of tryptophan in E. coli cells (Zeman et al. Folia Microbiol. 35:200-204, (1990)), was prepared as follows. To 800 mL nanopure water the following reagents were added: 2 g (NH4)2SO4 and 13.6 g KU2PO4. The pH was adjusted to 7.0, the volume was increased to 948 mL, and the medium was autoclaved. Following sterilization, 0.2 g MgSO4.7H2O, 0.01 g CaCl2.2H2O, and 0.5 mg FeSO4.7H2O were to the medium in a 1.8 mL volume followed by addition of 0.2 mL of Neidhardt's micronutrient solution. Neidhardt F. C., et al., “Culture medium for Enterobacteria,” J. Bacteriol. 119:736-746, (1974). […]

[2] = E. coli MG1655::aspC proA pProNdedel pUC19 (control), n = 2
[3] = E. coli MG1655::aspC proA pProNdedel, ramA pUC19, n = 2
[4] = E. coli MG1655::aspC proA pProNdedel, robA pUC19, n = 2

CCCCCCCCCC(=O)[O-].[Na+] [sodium decanoate]
OD 600 nm at 19 hours [1]: 0.885 | Monatin/dcw, 30 hours (E. coli MG1655; [2]): 4.66 mg/g | Monatin/dcw, 48 hours (E. coli MG1655; [2]): 4.31 mg/g | Monatin/dcw, 30 hours (E. coli MG1655; [3]): 3.69 mg/g | Monatin/dcw, 48 hours (E. coli MG1655; [3]): 13.90 mg/g | Monatin/dcw, 30 hours (E. coli MG1655; [4]): 6.91 mg/g | Monatin/dcw, 48 hours (E. coli MG1655; [4]): 25.62 mg/g
